Consider 4 compounds from patent US20060052432A1, “Pharmaceutical compositions with improved dissolution” (priority 2002, published 2006).

The structures appear in SMILES notation. Counter-ions that a name gives are not always drawn. Where only a bound is given, the exact number is not on record here.

Data set [1] is described as follows: Pharmacokinetic studies in rats, 5 mg/kg oral doses. It counts as in vivo, male Sprague-Dawley rats. To be noted: gelatin capsule, sodium salt blended 1:4 with polyvinylpyrrolidone, compared with CELEBREX
The protocol:
The sodium salt form (from Example 6) was compared with CELEBREX powder in terms of absorption in rats (FIGS. 4A and 4B).
Solids were placed in size 9 gelatin capsules (Torpac) and dosed via gavage needle, followed by oral gavage of 1 mL water. CELEBREX granulation was transferred from commercial 200 mg capsules. The sodium salt was blended with polyvinylpyrrolidone (e.g. PovidoneK30) in a 1:4 mixture. The plots are averages of plasma levels at each of the time points from plasma of 5 rats.

The nature of data set [2]: Administration of celecoxib compositions to dogs (plasma pharmacokinetics). The following applies: single oral dose, 5 mpk, male dogs.
Data set [3] can be described thus: Solubility of celecoxib sodium salt in the presence of polyvinylpyrrolidone. It is filed as physicochemical. To be noted: added to aqueous PVP, or water added to dry blend with PVP.
A further data set in a line: Solubility in water. It is filed as physicochemical.
For data set [4] the following is noted: commercially available neutral form; cited from earlier work.
The conditions of data set [5]: according to WO 01/78724; cited from earlier work.
Data set [6] can be described thus: In vitro dissolution studies in simulated gastric fluid. It counts as physicochemical. The protocol:
1. […] The celecoxib salt was ground using mortar and pestle until fine powder was formed. […] 2. Formulation Preparation • a. Fresh PLURONIC excipient was dispensed into a mortar. If initially a solid at room temperature, the PLURONIC was ground until a smooth powder was formed. • b. If HPC was to be added, it was dispensed after the PLURONIC excipient. […] 3. Dissolution Assay • a. A water bath was set up at 37 degrees C. • b. Simulated gastric fluid in the fasted state (SGF) was prepared at pH 1.7 and diluted five times with deionized water. […] The simulated gastric fluid was diluted five times to simulate the effect of drinking a glass of water with the medication. The SGF was pre-heated to 37 degrees C. • c. The formulation was placed in a 20 mL scintillation vial. • d. A 10 mm x 3 mm stir bar was added. • e. Diluted SGF was added to the formulation. […] The vial was placed in the water bath and allowed to stir. • g. […] The first ⅔ of filtrate was discarded as waste and the last ⅓ was collected into an eppendorf tube. 0.1 mL of the collected filtrate was immediately transferred to an autosampler vial and diluted ten times with 0.9 mL of methanol. The autosampler vials were crimp sealed and submitted for content analysis using high performance liquid chromatography with ultraviolet detection. In Vitro Dissolution Studies of PLURONIC Excipients - Results: […]

The next data set in a line: pKa. It counts as physicochemical.

Consider `Cc1ccc(-c2cc(C(F)(F)F)nn2-c2ccc(S(N)(=O)=O)cc2)cc1` [celecoxib sodium salt, sodium salt of 4-[5-(4-methylphenyl)-3-(trifluoromethyl)-1H-pyrazol-1-yl]benzenesulfonamide], for which the “peak level of the drug in plasma” value in data set [1] is given as “faster peak level of the drug in plasma”. For the same compound, in data set [2], the “maximum blood serum concentration reached faster than for celecoxib” value worked out at 40%.
In the case of `Cc1ccc(-c2cc(C(F)(F)F)nn2-c2ccc(S(N)(=O)=O)cc2)cc1` [celecoxib, 4-[5-(4-methylphenyl)-3-(trifluoromethyl)-1H-pyrazol-1-yl]benzenesulfonamide], the “dissolution in aqueous polyvinylpyrrolidone” value in data set [3] is on record as “did not dissolve”. In “Solubility in water”, the “ability to be maintained as a supersaturated solution” value is listed as “cannot be maintained as a supersaturated solution for any appreciable time” and the solubility is less than 1 µg/mL. In data set [4], the “solubility in water (in words)” value is “essentially insoluble in water”. In addition, in data set [5], the “solubility in Transcutol P” value is listed as 350 mg/g.
In the case of `CCOCCOCCO` [Transcutol P], the “effect on dissolution of celecoxib free acid” value in data set [6] is “does not enhance dissolution of the free acid”.
In the data set “pKa”, `Cc1onc(-c2ccccc2)c1-c1ccc(S(N)(=O)=O)cc1` [Valdecoxib, 4-(5-methyl-3-phenyl-4-isoxazolyl)benzene sulfonamide] gave a pKa of roughly 11. Besides, in data set [4], the “solubility in water (in words)” value is given as “essentially insoluble in water”.

One may read the solubility as the concentration that dissolves in the medium under given conditions. Lower therefore signals little dissolved substance. Broadly, the pKa is the pH at which an ionisable group is half protonated. A lower pKa goes with a stronger acid or weaker base.
